Type in all cases: cell-based
Assay [1] deals with HTT mRNA, alternative junction (AJ). Put plainly: Splicing assay (RT-qPCR): increase in HTT alternative junction (AJ) mRNA. The note with it: A673 or K562 cell line, 24 hours treatment, top dose 10 uM; concentration having 50% response in AJ increase. On the procedure: (§1) Compounds described herein were used to modulate RNA transcript abundance in cells. The expression of a target mRNA was measured by detecting the formation of an exon-exon junction in the canonical transcript (CJ). A compound mediated exon-inclusion event was detected by observing an increase in formation of a new junction with an alternative exon (AJ). Real-time qPCR assays were used to detect these splicing switches and interrogate the potency of various compounds towards different target genes. A high-throughput real time quantitative PCR (RT-qPCR) assay was developed to measure these two isoforms of the mRNA (CJ and AJ) for an exemplary gene, HTT, together with a control housekeeping gene, GAPDH or GUSB or PPIA, used for normalization. Briefly, the A673 or K562 cell line was treated with various compounds described herein (e.g., compounds of Formula (I)). After treatment, the levels of the HTT mRNA targets were determined from each sample of cell lysate by cDNA synthesis followed by qPCR.
(§2) • Cells-to-CT 1-step kit: ThermoFisher A25602, Cells-to-CT lysis reagent: ThermoFisher 4391851C, TaqMan™ Fast Virus 1-Step Master Mix: ThermoFisher 4444436 • GAPDH: VIC-PL, ThermoFisher 4326317E (Assay: Hs99999905_ml)—used for K562/suspension cell lines • GUSB: VIC-PL, ThermoFisher 4326320E (Assay: Hs99999908_ml)—used for K562/suspension cell lines • PPIA: VIC-PL, ThermoFisher 4326316E (Assay: Hs99999904_ml)—used for A673/adherent cell lines
(§3) The A673 cell line was cultured in DMEM with 10% FBS. Cells were diluted with full growth media and plated in a 96-well plate (15,000 cells in 100 ul media per well). The plate was incubated at 37° C. with 5% CO2 for 24 hours to allow cells to adhere. An 11-point 3-fold serial dilution of the compounds was made in DMSO then diluted in media in an intermediate plate. Compounds were transferred from the intermediate plate to the cell plate with the top dose at a final concentration of 10 uM in the well. Final DMSO concentration was kept at or below 0.25%. The cell plate was returned to the incubator at 37° C. with 5% CO2 for an additional 24 hours.
(§4) The K562 cell line was cultured in IMDM with 10% FBS. For K562, cells were diluted with full growth media and plated in either a 96-well plate (50,000 cells in 50 uL media per well) or a 384-well plate (8,000-40,000 cells in 45 uL media per well). An 11-point 3-fold serial dilution of the compounds were made in DMSO then diluted in media in an intermediate plate. Compound was transferred from the intermediate plate to the cell plate with the top dose at a final concentration of 10 uM in the well. Final DMSO concentration was kept at or below 0.25%. Final volume was 100 uL for 96-well plate and 50 uL for 384-well plate. The cell plate was then placed in an incubator at 37° C. with 5% CO2 for 24 hours.
(§5) The cells were then gently washed with 50 uL-100 uL cold PBS before proceeding to addition of lysis buffer. 30 uL-50 uL of room temperature lysis buffer with DNAse I (and optionally RNAsin) was added to each well. Cells were shaken/mixed thoroughly at room temperature for 5-10 minutes for lysis to take place and then 3 uL-5 uL of room temperature stop solution was added and wells were shaken/mixed again. After 2-5 minutes, the cell lysate plate was transferred to ice for RT-qPCR reaction setup. The lysates could also be frozen at −80° C. for later use.
(§6) In some cases, a direct lysis buffer was used. An appropriate volume of 3× lysis buffer (10 mM Tris, 150 mM NaCl, 1.5%-2.5% Igepal and 0.1-1 U/uL RNAsin, pH 7.4) was directly added to either K562 or A673 cells in media and mixed by pipetting 3 times. The plates were then incubated at room temperature with shaking/rocking for 20-50 minutes to allow for lysis to take place. After this time, the cell lysate plate was transferred to ice to set up for the RT-qPCR reactions. The lysates could also be frozen at −80° C. for later use. […]

For assay [2], the system named is HTT mRNA, canonical junction (CJ). Put plainly: Splicing assay (RT-qPCR): decrease in HTT canonical junction (CJ) mRNA. The settings on record: A673 or K562 cell line, 24 hours treatment, top dose 10 uM; concentration having 50% response in CJ decrease. On the procedure:
as §1, §2, §3, §4, §5, §6

Assay [3] concerns HTT CJ mRNA. Put plainly: Gene panel canonical junction qPCR assay: decrease in HTT CJ mRNA. The settings on record: protocol as for Table 2, read-out: HTT (IC50, decrease in CJ mRNA levels). On the procedure:
as §1, §3, §4, §5
(§7) In some cases, a direct lysis buffer was used. An appropriate volume of 3× lysis buffer (10 mM Tris, 150 mM NaCl, 1.5%-2.5% Igepal and 0.1-1 U/uL RNAsin, pH 7.4) was directly added to either K562 or A673 cells in media and mixed by pipetting 3 times. The plates were then incubated at room temperature with shaking/rocking for 20-50 minutes to allow for lysis to take place. After this time, the cell lysate plate was transferred to ice to set up for the RT-qPCR reactions. The lysates could also be frozen at −80° C. for later use.
(§8) To set up 10 uL RT-qPCR reactions, cell lysates were transferred to 384-well qPCR plates containing the master mix according to the table below. The plates were sealed, gently vortexed, and spun down before the run. The volumes were adjusted accordingly in some instances where the reaction was carried in 20 uL. The table below summarizes the components of the RT-qPCR reactions:
(§9) The RT-qPCR reaction was performed using a QuantStudio (ThermoFisher) under the following fast cycling conditions. […]

The test system of assay [4] is SMN2 CJ mRNA. The assay can be described thus: Gene panel canonical junction qPCR assay: decrease in SMN2 CJ mRNA. The note with it: protocol as for Table 2, read-out: SMN2 (IC50, decrease in CJ mRNA levels). On the procedure:
as §1, §3, §4, §5, §7, §8, §9

Assay [5] concerns Target C CJ mRNA. The assay can be described thus: Gene panel canonical junction qPCR assay: decrease in Target C CJ mRNA. The note with it: protocol as for Table 2, read-out: Target C (IC50, decrease in CJ mRNA levels). On the procedure: as §1, §3, §4, §5, §7, §8, §9
In general terms: Quantitative PCR measures a nucleic acid by following its amplification.

pIC50: −log10 of the molar value.

The term AC50 denotes the concentration at which the activity in the assay is half-maximal. Read a high AC50 as weaker potency. As usually defined, the pIC50 is the negative decadic logarithm of the IC50, by convention in mol/L.

Consider `Cc1cn2cc(NC(=O)c3ccc(N4CCNCC4)c4ccnnc34)c(C)cc2n1` [Compound 119, N-[2,7-dimethylimidazo[1,2-a]pyridin-6-yl]-5-(piperazin-1-yl) cinnoline-8-carboxamide], for which the half-maximal activity concentration (AC50) in assay [1] and in assay [2] was 1000 to 10000 nM in each case. Further, the figures for the negative logarithm of the IC50 (pIC50) in assay [3], in assay [4] and in assay [5] were 5.00 to 6.00, greater than 7.00 and 5.00 to 6.00, respectively.

For the compound `Cc1cn2cc(NC(=O)c3ccc(N4CC5(CN(C)C5)C4)c4ccnnc34)cc(F)c2n1` [Compound 132, N-[8-fluoro-2-methylimidazo[1,2-a]pyridin-6-yl]-5-[6-methyl-2,6-diazaspiro[3.3]heptan-2-yl]cinnoline-8-carboxamide], the concentration at half-maximal activity (AC50) in assay [1] and in assay [2] was 1000 to 10000 nM in each case. Besides, the pIC50 in assay [3] is 5.00 to 6.00; in assay [4] it was greater than 7.00; in assay [5], greater than 7.00.

`Cc1cn2cc(NC(=O)c3ccc(N(C)[C@@H]4C[C@H]5CC[C@@H](C4)N5)c4ccnnc34)cc(F)c2n1` [Compound 156, 5-[(exo)-8-azabicyclo[3.2.1]octan-3-yl(methyl)amino]-N-[8-fluoro-2-methylimidazo[1,2-a]pyridin-6-yl]cinnoline-8-carboxamide]: the concentration at half-maximal activity (AC50) in assay [1] and in assay [2] was greater than 10000 nM each time. The negative-log IC50 (pIC50) is less than 5.00 in assay [3], 6.00 to 7.00 in assay [4] and less than 5.00 in assay [5].

For the compound `Cn1cc2ccc(NC(=O)c3ccc(N4CCNCC4)c4ccnnc34)cc2n1` [Compound 115, N-(2-methylindazol-6-yl)-5-(piperazin-1-yl) cinnoline-8-carboxamide], the concentration at half-maximal activity (AC50) in assay [1] and in assay [2] was greater than 10000 nM each time. The negative logarithm of the IC50 (pIC50) in assay [3], in assay [4] and in assay [5] was less than 5.00 throughout.

For `Cc1cn2nc(NC(=O)c3ccc(N4CCNCC4)c4ccnnc34)cc(C)c2n1` [Compound 100, N-[2,8-dimethylimidazo[1,2-b]pyridazin-6-yl]-5-(piperazin-1-yl)cinnoline-8-carboxamide], the AC50 in assay [1] and in assay [2] was 100 to 1000 nM in each case. Further, the pIC50 in assay [3], in assay [4] and in assay [5] was 6.00 to 7.00 throughout.

For `Cc1cn2cc(NC(=O)c3ccc(N4CCNCC4)c4ccnnc34)cc(C)c2n1` [Compound 125, N-[2,8-dimethylimidazo[1,2-a]pyridin-6-yl]-5-(piperazin-1-yl)cinnoline-8-carboxamide], the AC50 in assay [1] and in assay [2] was 1000 to 10000 nM throughout. The negative-log IC50 (pIC50) is 5.00 to 6.00 in assay [3], greater than 7.00 in assay [4] and 5.00 to 6.00 in assay [5].

In the case of `Cc1cn2cc(NC(=O)c3ccc(N4CC5(CNC5)C4)c4ccnnc34)cc(F)c2n1` [Compound 131, 5-[2,6-diazaspiro[3.3]heptan-2-yl]-N-[8-fluoro-2-methylimidazo[1,2-a]pyridin-6-yl]cinnoline-8-carboxamide], the half-maximal activity concentration (AC50) in assay [1] and in assay [2] was 1000 to 10000 nM throughout. The pIC50 in assay [3] was 5.00 to 6.00; in assay [4] it was greater than 7.00; in assay [5], 6.00 to 7.00.

Consider `Cc1cn2cc(NC(=O)c3ccc(N4CCNCC4)c4ccnnc34)cc(Cl)c2n1` [Compound 124, N-[8-chloro-2-methylimidazo[1,2-a]pyridin-6-yl]-5-(piperazin-1-yl)cinnoline-8-carboxamide], for which the AC50 in assay [1] and in assay [2] was 1000 to 10000 nM throughout. Further, the negative logarithm of the IC50 (pIC50) in assay [3] is 5.00 to 6.00; in assay [4] it was greater than 7.00; in assay [5], 5.00 to 6.00.

As to `Cc1cn2cc(NC(=O)c3ccc(N4CCC(N(C)C)CC4)c4nccnc34)cc(F)c2n1` [Compound 158, 8-[4-(dimethylamino)piperidin-1-yl]-N-[8-fluoro-2-methylimidazo[1,2-a]pyridin-6-yl] quinoxaline-5-carboxamide], the AC50 in assay [1] and in assay [2] was 100 to 1000 nM each time. For the same compound, the negative-log IC50 (pIC50) in assay [3] is 6.00 to 7.00; in assay [4], greater than 7.00; in assay [5], 5.00 to 6.00.

In the case of `Cc1cn2cc(NC(=O)c3ccc(N4CCN(C)C(C)C4)c4ccnnc34)cc(F)c2n1` (stereo in doubt) [Compound 149, 5-[(3S)-3,4-dimethylpiperazin-1-yl]-N-[8-fluoro-2-methylimidazo[1,2-a]pyridin-6-yl]cinnoline-8-carboxamide], the concentration at half-maximal activity (AC50) in assay [1] and in assay [2] was 1000 to 10000 nM throughout. Further, the negative logarithm of the IC50 (pIC50) in assay [3] was 5.00 to 6.00; in assay [4], greater than 7.00; in assay [5], 5.00 to 6.00.

Consider `Cc1cn2cc(NC(=O)c3ccc(N4CCC(N(C)C)CC4)c4ccnnc34)cc(F)c2n1` [Compound 137, 5-[4-(dimethylamino)piperidin-1-yl]-N-[8-fluoro-2-methylimidazo[1,2-a]pyridin-6-yl] cinnoline-8-carboxamide], for which the half-maximal activity concentration (AC50) in assay [1] and in assay [2] was 100 to 1000 nM in each case. Moreover, the negative logarithm of the IC50 (pIC50) in assay [3] is 6.00 to 7.00; in assay [4], greater than 7.00; in assay [5], 6.00 to 7.00.

Consider `Cc1cn2cc(NC(=O)c3ccc(N4CCN5CCCC5C4)c4ccnnc34)cc(F)c2n1` (stereo in doubt) [Compound 154, 5-[(8aR)-hexahydro-1H-pyrrolo[1,2-a]pyrazin-2-yl]-N-[8-fluoro-2-methylimidazo[1,2-a]pyridin-6-yl]cinnoline-8-carboxamide], for which the AC50 in assay [1] and in assay [2] was 1000 to 10000 nM each time. Also, the negative logarithm of the IC50 (pIC50) in assay [3] was 5.00 to 6.00; in assay [4] it was greater than 7.00; in assay [5], 6.00 to 7.00.

Consider `Cc1cn2cc(NC(=O)c3ccc(N4CCC(N5CCCC5)C4)c4ccnnc34)cc(F)c2n1` (centres unmarked) [Compound 133, 5-[[1,3-bipyrrolidin]-1-yl]-N-[8-fluoro-2-methylimidazo[1,2-a]pyridin-6-yl]cinnoline-8-carboxamide], for which the half-maximal activity concentration (AC50) in assay [1] and in assay [2] was 1000 to 10000 nM each time. For the same compound, the negative logarithm of the IC50 (pIC50) in assay [3] is 5.00 to 6.00; in assay [4] it was greater than 7.00; in assay [5], 5.00 to 6.00.
